Measurements from US20260364184A1, “COMPOUND BASED ON OXOISOINDOLINYL-SUBSTITUTED TETRAHYDROPYRIMIDINE-DIONE AND USE THEREOF” (GLUETACS THERAPEUTICS (SHANGHAI) CO., LTD., priority 2023, published 2026).

Experiments:
Type in all cases: cell-based
Settings in all cases: hPBMC Cell; 24 hours
[1] = target: T1, GSPT1 (Homo sapiens, UniProt P15170+Q96SW2); assay: Western blot degradation of GSPT1
T1 construct: expression of target proteins in cells; endogenous in cells
Experimental: (§1) Conventional Western blot assay was performed to evaluate the effects of the compounds of the present disclosure on the expression of target proteins in cells.
(§2) (1) Cell Seeding and Protein Harvesting: The selected cells were processed according to the cell seeding procedure and protein harvesting procedure in Table II-2.
(§3) (2) To the collected supernatant, 5×SDS sample loading buffer was added, followed by denaturation at 95 °C for 5 minutes. The denatured samples were then separated by SDS-PAGE electrophoresis on a polyacrylamide gel. Proteins were transferred to a nitrocellulose membrane (0.45 μm NC membrane), blocked with blocking buffer at room temperature for 1 hour, and subjected to antibody incubation and development procedures according to the antibody manufacturer's instructions (Cell Signaling Technology).
(§4) Half-Maximal Degradation Concentration value (the drug concentration required for degrading proteins by 50%, abbreviated as DC50) reads method: comparing the grayscale values of Western blot bands from drug-treated samples with those from blank DMSO-treated controls, and identifying the drug concentration range at which the grayscale value is half that of the DMSO-treated control bands.
(§5) DC50 values can be calculated using ImageJ software to measure grayscale values of Western blot bands from drug-treated samples. The concentration-response curve is fitted to estimate the drug concentration corresponding to half the grayscale value.
(§6) Target protein remaining (%) refers to the percentage of target protein remaining in cells after treatment with protein degrader compounds.
(§7) Calculation method for target protein remaining (%): Use ImageJ software to measure grayscale values of Western blot bands from drug (protein degrader)-treated samples. The grayscale value of drug-treated bands is divided by that of internal control protein bands, and the resulting quotient is normalized to obtain the relative percentage of remaining target protein after protein degrader treatment.
(§8) Target protein degradation rate (%)=1−target protein remaining (%).

[2] = target: T2, IKZF2 (Homo sapiens, UniProt Q96SW2+Q9UKS7); assay: Western blot degradation of IKZF2
T2 construct: expression of target proteins in cells; endogenous in cells
Experimental: as §1, §2, §3, §4, §5, §6, §7, §8

[3] = target: T3, WEE1 (Homo sapiens, UniProt P30291+Q96SW2); assay: Western blot degradation of WEE1
T3 construct: expression of target proteins in cells; endogenous in cells
T3 sequence (P30291 whole entry): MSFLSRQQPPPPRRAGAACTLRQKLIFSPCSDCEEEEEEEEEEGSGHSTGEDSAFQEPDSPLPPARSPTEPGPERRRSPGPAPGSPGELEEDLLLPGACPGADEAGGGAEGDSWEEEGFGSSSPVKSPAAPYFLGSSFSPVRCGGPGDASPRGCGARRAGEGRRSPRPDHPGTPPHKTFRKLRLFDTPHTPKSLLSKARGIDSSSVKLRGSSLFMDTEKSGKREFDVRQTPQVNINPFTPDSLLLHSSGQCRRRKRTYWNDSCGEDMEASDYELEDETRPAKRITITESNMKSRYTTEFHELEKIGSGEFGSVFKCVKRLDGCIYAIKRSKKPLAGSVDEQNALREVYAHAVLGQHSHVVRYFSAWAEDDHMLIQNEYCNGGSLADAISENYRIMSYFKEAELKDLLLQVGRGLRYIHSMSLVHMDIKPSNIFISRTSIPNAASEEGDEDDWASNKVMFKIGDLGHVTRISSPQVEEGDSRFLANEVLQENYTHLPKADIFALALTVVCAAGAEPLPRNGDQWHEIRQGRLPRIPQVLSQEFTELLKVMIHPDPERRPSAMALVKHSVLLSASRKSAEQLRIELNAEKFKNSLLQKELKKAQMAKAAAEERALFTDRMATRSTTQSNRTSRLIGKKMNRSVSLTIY
T3 sequence (Q96SW2 whole entry): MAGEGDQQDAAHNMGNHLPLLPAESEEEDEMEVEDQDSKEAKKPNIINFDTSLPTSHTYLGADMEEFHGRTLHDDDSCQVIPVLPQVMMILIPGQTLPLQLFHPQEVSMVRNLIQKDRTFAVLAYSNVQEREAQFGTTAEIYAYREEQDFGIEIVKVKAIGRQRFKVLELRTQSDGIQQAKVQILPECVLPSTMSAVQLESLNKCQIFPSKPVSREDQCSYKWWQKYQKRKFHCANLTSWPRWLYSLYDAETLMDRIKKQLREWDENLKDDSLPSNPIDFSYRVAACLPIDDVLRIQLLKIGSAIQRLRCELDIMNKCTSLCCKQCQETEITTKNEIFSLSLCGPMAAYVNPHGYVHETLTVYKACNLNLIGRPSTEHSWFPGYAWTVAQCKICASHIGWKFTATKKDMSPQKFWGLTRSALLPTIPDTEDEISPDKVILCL
T3 sequence (Q16531 whole entry partner): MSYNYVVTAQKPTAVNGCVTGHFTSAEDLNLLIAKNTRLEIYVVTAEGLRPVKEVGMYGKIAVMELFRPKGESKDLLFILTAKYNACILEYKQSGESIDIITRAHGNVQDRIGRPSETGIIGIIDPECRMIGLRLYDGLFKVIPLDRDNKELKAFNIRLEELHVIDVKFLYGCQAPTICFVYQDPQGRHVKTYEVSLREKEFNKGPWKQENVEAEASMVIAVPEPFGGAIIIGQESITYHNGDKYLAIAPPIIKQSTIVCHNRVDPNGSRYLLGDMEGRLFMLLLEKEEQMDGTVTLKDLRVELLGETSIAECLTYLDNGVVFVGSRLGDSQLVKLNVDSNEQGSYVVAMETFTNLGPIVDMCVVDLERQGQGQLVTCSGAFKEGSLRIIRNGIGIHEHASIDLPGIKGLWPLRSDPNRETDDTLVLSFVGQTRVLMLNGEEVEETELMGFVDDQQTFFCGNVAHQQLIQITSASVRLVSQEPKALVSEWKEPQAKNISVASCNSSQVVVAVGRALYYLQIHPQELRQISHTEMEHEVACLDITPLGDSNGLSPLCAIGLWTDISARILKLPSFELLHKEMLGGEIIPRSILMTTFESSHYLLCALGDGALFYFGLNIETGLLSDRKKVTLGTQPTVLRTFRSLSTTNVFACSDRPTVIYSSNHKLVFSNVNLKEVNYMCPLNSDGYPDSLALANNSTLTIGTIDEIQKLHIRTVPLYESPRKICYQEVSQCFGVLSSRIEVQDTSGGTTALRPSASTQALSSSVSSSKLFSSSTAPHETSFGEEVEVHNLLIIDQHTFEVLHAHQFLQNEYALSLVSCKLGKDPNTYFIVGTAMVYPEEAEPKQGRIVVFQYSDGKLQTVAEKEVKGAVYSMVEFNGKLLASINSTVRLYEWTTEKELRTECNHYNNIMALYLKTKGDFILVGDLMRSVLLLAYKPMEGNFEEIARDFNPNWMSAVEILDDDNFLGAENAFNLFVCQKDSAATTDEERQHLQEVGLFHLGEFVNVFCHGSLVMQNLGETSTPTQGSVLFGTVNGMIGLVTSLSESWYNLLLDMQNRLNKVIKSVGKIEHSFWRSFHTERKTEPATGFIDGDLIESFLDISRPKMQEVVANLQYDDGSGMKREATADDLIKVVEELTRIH
Experimental: as §1, §2, §3, §4, §5, §6, §7, §8

[4] = target: T4, IKZF3 (Homo sapiens, UniProt Q96SW2+Q9UKT9); assay: Western blot degradation of IKZF3
T4 construct: expression of target proteins in cells; endogenous in cells
T4 sequence (Q9UKT9 whole entry): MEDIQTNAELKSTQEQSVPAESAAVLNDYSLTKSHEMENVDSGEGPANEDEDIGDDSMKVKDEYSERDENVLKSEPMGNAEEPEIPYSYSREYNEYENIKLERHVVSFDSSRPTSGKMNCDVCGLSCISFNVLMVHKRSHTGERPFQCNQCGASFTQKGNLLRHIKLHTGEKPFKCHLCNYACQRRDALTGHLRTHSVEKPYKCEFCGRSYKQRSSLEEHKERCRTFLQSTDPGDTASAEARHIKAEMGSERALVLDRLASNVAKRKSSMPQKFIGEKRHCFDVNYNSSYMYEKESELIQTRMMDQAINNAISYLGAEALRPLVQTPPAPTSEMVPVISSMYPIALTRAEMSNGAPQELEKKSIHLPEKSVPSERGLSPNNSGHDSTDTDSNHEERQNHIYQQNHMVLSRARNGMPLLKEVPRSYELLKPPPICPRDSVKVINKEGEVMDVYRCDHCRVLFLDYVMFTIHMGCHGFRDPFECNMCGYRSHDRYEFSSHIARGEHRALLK
T4 sequence (Q96SW2 whole entry): as the sequence (Q96SW2 whole entry) above
T4 sequence (Q16531 whole entry partner): as the sequence (Q16531 whole entry partner) above
Experimental: as §1, §2, §3, §4, §5, §6, §7, §8

[5] = target: T5, IKZF1 (Homo sapiens, UniProt Q13422+Q96SW2); assay: Western blot degradation of IKZF1
T5 construct: expression of target proteins in cells; endogenous in cells
T5 sequence (Q13422 whole entry): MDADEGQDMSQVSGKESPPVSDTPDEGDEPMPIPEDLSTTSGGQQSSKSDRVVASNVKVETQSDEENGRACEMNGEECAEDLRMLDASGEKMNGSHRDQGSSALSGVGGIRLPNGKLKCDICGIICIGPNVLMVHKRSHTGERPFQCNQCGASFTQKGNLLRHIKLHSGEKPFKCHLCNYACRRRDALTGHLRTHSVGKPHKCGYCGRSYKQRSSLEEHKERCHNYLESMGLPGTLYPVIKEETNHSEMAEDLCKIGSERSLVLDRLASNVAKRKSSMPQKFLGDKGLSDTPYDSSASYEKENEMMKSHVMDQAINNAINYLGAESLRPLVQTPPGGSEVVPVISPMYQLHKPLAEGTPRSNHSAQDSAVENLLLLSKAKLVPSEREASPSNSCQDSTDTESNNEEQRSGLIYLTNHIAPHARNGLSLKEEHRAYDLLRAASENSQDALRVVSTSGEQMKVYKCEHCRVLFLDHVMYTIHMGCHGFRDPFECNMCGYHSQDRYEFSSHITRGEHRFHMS
T5 sequence (Q96SW2 whole entry): as the sequence (Q96SW2 whole entry) above
T5 sequence (Q16531 whole entry partner): as the sequence (Q16531 whole entry partner) above
Experimental: as §1, §2, §3, §4, §5, §6, §7, §8

[6] = target: T6, CK1α (Homo sapiens, UniProt P48729+Q96SW2); assay: Western blot degradation of CK1α
T6 construct: expression of target proteins in cells; endogenous in cells
T6 sequence (P48729 whole entry): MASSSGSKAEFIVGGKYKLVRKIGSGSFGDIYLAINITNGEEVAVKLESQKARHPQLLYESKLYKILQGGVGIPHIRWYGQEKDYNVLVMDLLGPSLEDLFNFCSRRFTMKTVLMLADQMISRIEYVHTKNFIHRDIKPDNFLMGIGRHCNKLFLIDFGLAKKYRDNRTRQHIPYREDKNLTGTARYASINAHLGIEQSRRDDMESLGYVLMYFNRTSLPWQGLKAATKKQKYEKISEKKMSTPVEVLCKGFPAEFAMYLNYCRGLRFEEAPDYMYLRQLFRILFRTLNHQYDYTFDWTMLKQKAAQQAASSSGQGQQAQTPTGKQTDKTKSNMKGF
T6 sequence (Q96SW2 whole entry): as the sequence (Q96SW2 whole entry) above
T6 sequence (Q16531 whole entry partner): as the sequence (Q16531 whole entry partner) above
Experimental: as §1, §2, §3, §4, §5, §6, §7, §8

T1 sequence (P15170 whole entry): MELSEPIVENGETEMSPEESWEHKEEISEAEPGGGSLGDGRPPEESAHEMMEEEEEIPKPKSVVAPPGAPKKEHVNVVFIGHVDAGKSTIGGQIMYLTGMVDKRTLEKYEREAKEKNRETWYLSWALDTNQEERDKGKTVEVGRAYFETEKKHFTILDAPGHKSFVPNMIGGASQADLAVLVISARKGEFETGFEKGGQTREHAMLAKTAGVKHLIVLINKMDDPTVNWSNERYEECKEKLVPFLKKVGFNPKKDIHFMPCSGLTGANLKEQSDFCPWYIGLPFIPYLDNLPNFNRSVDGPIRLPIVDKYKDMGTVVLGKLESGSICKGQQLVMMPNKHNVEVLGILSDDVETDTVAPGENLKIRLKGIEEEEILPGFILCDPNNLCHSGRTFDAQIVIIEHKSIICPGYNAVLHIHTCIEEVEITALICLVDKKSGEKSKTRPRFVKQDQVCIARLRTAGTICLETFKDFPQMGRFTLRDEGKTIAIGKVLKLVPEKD
T1 sequence (Q96SW2 whole entry): as the sequence (Q96SW2 whole entry) above
T1 sequence (Q16531 whole entry partner): as the sequence (Q16531 whole entry partner) above

Structure (SMILES)	Degradation of substrate protein GSPT1 (substrate protein remaining %) [1]	Degradation of substrate protein IKZF2 (substrate protein remaining %) [2]	Degradation of substrate protein WEE1 (substrate protein remaining %) [3]	Degradation of substrate protein IKZF3 (substrate protein remaining %) [4]	Degradation of substrate protein IKZF1 (substrate protein remaining %) [5]	Degradation of substrate protein CK1α (substrate protein remaining %) [6]
O=C1CCN(N2C(=O)c3ccc(N4C[C@@H]5C[C@H]4CN5)cc3C2=O)C(=O)N1 [GT-05582, 5-((1S, 4S)-2,5-diazabicyclo[2.2.1]heptan-2-yl)-2-(2,4-dioxotetrahydropyrimidin-1(2H)-yl)isoindoline-1,3-dione]	A (0%≤substrate protein remaining %≤80%)	A (0%≤substrate protein remaining %≤80%)	A (0%≤substrate protein remaining %≤80%)	A (0%≤substrate protein remaining %≤80%)	B (80%<substrate protein remaining %≤100%)	A (0%≤substrate protein remaining %≤80%)
O=C1CCN(N2C(=O)c3ccc(N4C5CNCC4C5)cc3C2=O)C(=O)N1 [GT-05588, 5-(3,6-diazabicyclo[3.1.1]heptan-6-yl)-2-(2,4-dioxotetrahydropyrimidin-1(2H)-yl)isoindoline-1,3-dione]	B (80%<substrate protein remaining %≤100%)	B (80%<substrate protein remaining %≤100%)	B (80%<substrate protein remaining %≤100%)	A (0%≤substrate protein remaining %≤80%)	B (80%<substrate protein remaining %≤100%)	B (80%<substrate protein remaining %≤100%)
O=C1CCN(N2C(=O)c3ccc(N4CC5CCC(C4)N5)cc3C2=O)C(=O)N1 [GT-05589, 5-(3,8-diazabicyclo[3.2.1]octan-3-yl)-2-(2,4-dioxotetrahydropyrimidin-1(2H)-yl)isoindoline-1,3-dione]	B (80%<substrate protein remaining %≤100%)	B (80%<substrate protein remaining %≤100%)	B (80%<substrate protein remaining %≤100%)	A (0%≤substrate protein remaining %≤80%)	B (80%<substrate protein remaining %≤100%)	B (80%<substrate protein remaining %≤100%)
O=CC1CCN(c2cccc3c2C(=O)N(N2CCC(=O)NC2=O)C3=O)CC1 [GT-05590, 1-(2-(2,4-dioxotetrahydropyrimidin-1(2H)-yl)-1,3-dioxoisoindolin-4-yl)piperidine-4-carbaldehyde]	B (80%<substrate protein remaining %≤100%)	B (80%<substrate protein remaining %≤100%)	B (80%<substrate protein remaining %≤100%)	A (0%≤substrate protein remaining %≤80%)	B (80%<substrate protein remaining %≤100%)	B (80%<substrate protein remaining %≤100%)
O=C1CCN(N2C(=O)c3cccc(N4CCNCC4)c3C2=O)C(=O)N1 [GT-05591, 2-(2,4-dioxotetrahydropyrimidin-1(2H)-yl)-4-(piperazin-1-yl)isoindoline-1,3-dione]	B (80%<substrate protein remaining %≤100%)	B (80%<substrate protein remaining %≤100%)	B (80%<substrate protein remaining %≤100%)	A (0%≤substrate protein remaining %≤80%)	B (80%<substrate protein remaining %≤100%)	B (80%<substrate protein remaining %≤100%)
O=C1CCN(N2C(=O)c3ccc(N4CCNCC4)c(F)c3C2=O)C(=O)N1 [GT-05592, 2-(2,4-dioxotetrahydropyrimidin-1(2H)-yl)-4-fluoro-5-(piperazin-1-yl)isoindoline-1,3-dione]	B (80%<substrate protein remaining %≤100%)	B (80%<substrate protein remaining %≤100%)	B (80%<substrate protein remaining %≤100%)	A (0%≤substrate protein remaining %≤80%)	B (80%<substrate protein remaining %≤100%)	B (80%<substrate protein remaining %≤100%)
O=C1CCN(N2C(=O)c3cc(N4CCNCC4)cc(F)c3C2=O)C(=O)N1 [GT-05593, 2-(2,4-dioxotetrahydropyrimidin-1(2H)-yl)-4-fluoro-6-(piperazin-1-yl)isoindoline-1,3-dione]	A (0%≤substrate protein remaining %≤80%)	A (0%≤substrate protein remaining %≤80%)	B (80%<substrate protein remaining %≤100%)	B (80%<substrate protein remaining %≤100%)	B (80%<substrate protein remaining %≤100%)	B (80%<substrate protein remaining %≤100%)
O=C1CCN(N2C(=O)c3ccc(N4CCC(N5CCNCC5)CC4)cc3C2=O)C(=O)N1 [GT-05594, 2-(2,4-dioxotetrahydropyrimidin-1(2H)-yl)-5-(4-(piperazin-1-yl)piperidin-1-yl)isoindoline-1,3-dione]	A (0%≤substrate protein remaining %≤80%)	A (0%≤substrate protein remaining %≤80%)	B (80%<substrate protein remaining %≤100%)	B (80%<substrate protein remaining %≤100%)	B (80%<substrate protein remaining %≤100%)	B (80%<substrate protein remaining %≤100%)
